Reference: patent publication US20130028865A1, “Combination of a Macrocyclic Inhibitor of HCV, A Non-Nucleoside and a Nucleoside” (MEDIVIR AB, priority 2010, published 2013)
Read-outs that look alike come from different tables or passages of the source.

Columns and labels:
[1] = test system: HCV RNA replication (HCV type 1b replicon in Huh-7 luc/neo cells); test: HCV replicon assay (Huh-Luc, luciferase read-out); format: cell-based; settings: Hepatitis C virus, Huh-7, 72 h, HCV replicon test, three days incubation
Text: The EC50 ratio between the active ingredients of formula I, II and III in the combinations of the invention may vary. As used herein the term “EC50 ratio” refers to the ratio of the EC50 value of the compound of formula I to the EC50 value of the compound of formula II, and to the EC50 value of the compound of formula III, said EC50 values being obtained in the HCV replicon test. The latter in particular is the test method described hereinafter.
The in vitro antiviral activity against HCV of the compound of formula I or of formula II or of formula III can be tested in a cellular HCV replicon system based on Lohmann et al. (1999) Science 285:110-113, with the further modifications described by Krieger et al. (2001) Journal of Virology 75: 4614-4624 (incorporated herein by reference), which is further exemplified in the examples section. […]
The replicon cells were plated in 384 well plates in the presence of the test and control compounds which were added in various concentrations. Following an incubation of three days, HCV replication was measured by assaying luciferase activity (using standard luciferase assay substrates and reagents, and a Perkin Elmer ViewLux™ ultraHTS microplate imager). […] The inhibitory activity of the compound was monitored on the Huh-Luc cells, enabling a dose-response curve for each test compound. […]

[2] = test system: HCV RNA replication (HCV type 1b replicon in Huh-7 luc/neo cells); settings: HCV replicon test; reported in WO2010/003658; cited from earlier work

COc1ccc2c(O[C@@H]3C[C@H]4C(=O)N[C@]5(C(=O)NS(=O)(=O)C6CC6)C[C@H]5C=CCCCCN(C)C(=O)[C@@H]4C3)cc(-c3nc(C(C)C)cs3)nc2c1C (stereo in doubt) [compound I, (1R,4R,6S,15R,17R)-cis-N-[17-[2-(4-isopropylthiazole-2-yl)-7-methoxy-8-methyl-quinolin-4-yloxy]-13-methyl-2,14-dioxo-3,13-diazatricyclo[13.3.0.0^4,6]octadec-7-ene-4-carbonyl](cyclopropyl)sulfonamide]
EC50 [1]: 8 nM

C[C@@H]1[C@H](n2ccc(N)nc2=O)O[C@@](CO)(N=[N+]=[N-])[C@H]1O [compound II, 4-amino-1-((2R,3S,4S,5R)-5-azido-4-hydroxy-5-hydroxymethyl-3-methyl-tetrahydrofuran-2-yl)-1H-pyrimidin-2-one]
EC50 [1]: 5000 nM

COc1ccc2c(c1)C=C1Cn3c-2c(C2CCCCC2)c2ccc(cc23)C(=O)NS(=O)(=O)N(C)CCOCCN(C)C1=O [compound III]
EC50 [2]: 70 nM
